Laboratory results reported in patent US5474988A, “5-phenylpyrrolo-1,4-benzoxazine and 5-phenylpyrrolo-1,4-benzothiazine compounds, process and intermediates for their production and pharmaceutical compositions containing them” (Kali-Chemie Pharma GmbH, priority 1993, dated 1995).

System: 5-lipoxygenase
Test: inhibition of 5-lipoxygenase activity in polymorphonuclear rat leucocytes (LTB4 formation)
Format: cell-based
Details: 10^-5 mol/l; 22° C.
Summary of the method: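 Thioglycolate-elicited peritoneal PMNs from male Sprague-Dawley rats (0.5×10^6 cells) preincubated 15 min at 22 °C with 10 μM compound in HEPES-buffered HBSS, then stimulated with 5 μM calcimycin for 10 min. LTB4 quantified by reverse-phase HPLC at 270 nm; % inhibition versus solvent control.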

SMILES | In vitro inhibitory activity on LTB4 formation in rat PMNs stimulated by calcium ionophore A23187 [%]
COc1ccc2c3c1c(C)c(-c1ccc(O)cc1)n3CC(CCN1CCN(c3cc(C)ccn3)CC1)O2 (centres unmarked) [Example 3, 2,3-Dihydro-5-(4-hydroxyphenyl)-7-methoxy-6-methyl-2-[2-(4-(4-methylpyridin-2-yl)piperazin-1-yl)ethyl]pyrrolo[1,2,3-de]-1,4-benzoxazine] | 96
Cc1ccnc(N2CCN(CCC3Cn4c(-c5ccc(O)cc5)c(C)c5c(O)ccc(c54)O3)CC2)c1 (centres unmarked) [Example 4, 2,3-Dihydro-7-hydroxy-5-(4-hydroxyphenyl)-6-methyl-2-[2-(4-(4-methylpyridin-2-yl)piperazin-1-yl)ethyl]pyrrolo[1,2,3-de]-1,4-benzoxazine] | 100
Cc1ccnc(N2CCN(C(=O)CCCC3Cn4c(-c5cc(C)c(O)c(C)c5)c(C)c5cccc(c54)O3)CC2)c1 (centres unmarked) [Example 9, 2,3-Dihydro-5-(3,5-dimethyl-4-hydroxyphenyl)-6-methyl-2-[4-(4-(4-methylpyridin-2-yl)piperazin-1-yl)-4-oxobutyl]-pyrrolo[1,2,3-de]-1,4-benzoxazine] | 86
COc1cc(-c2c(C)c3cccc4c3n2CC(CCN2CCN(c3cc(C)ccn3)CC2)O4)ccc1O (centres unmarked) [Example 12] | 100
Cc1ccnc(N2CCN(CCC3Cn4c(-c5ccc(O)c(O)c5)c(C)c5cccc(c54)O3)CC2)c1 (centres unmarked) [Example 13] | 98
Cc1ccnc(N2CCN(C(=O)CCC3Cn4c(-c5ccc(O)cc5)c(C)c5cccc(c54)O3)CC2)c1 (centres unmarked) [Example 15] | 94
Cc1ccnc(N2CCN(CCC3Cn4c(-c5cc(C)c(O)c(C)c5)c(C)c5cccc(c54)O3)CC2)c1 (centres unmarked) [Example 20] | 75
Cc1cc(-c2c(C)c3cccc4c3n2CC(CCCC(=O)N2CCN(c3ccccn3)CC2)O4)cc(C)c1O (centres unmarked) [Example 23] | 92
Cc1cc(-c2c(C)c3cccc4c3n2CC(CCC(=O)N2CCN(c3ccccn3)CC2)O4)cc(C)c1O (centres unmarked) [Example 26] | 67
Cc1cc(-c2c(C)c3c(F)ccc4c3n2CC(CCN2CCN(c3ccccn3)CC2)O4)cc(C)c1O (centres unmarked) [Example 27] | 90
Cc1ccnc(N2CCN(CCC3Cn4c(-c5cc(C)c(O)c(C)c5)c(C)c5c(F)ccc(c54)O3)CC2)c1 (centres unmarked) [Example 28] | 48
Cc1ccc(N2CCN(C(=O)CCC3Cn4c(-c5ccc(O)cc5)c(C)c5cccc(c54)O3)CC2)nc1 (centres unmarked) [Example 34] | 95
COc1cc(-c2c(C)c3cccc4c3n2CC(CCC(=O)N2CCN(c3ccc(C)cn3)CC2)O4)ccc1O (centres unmarked) [Example 39] | 98
COc1cc2c3c(c1)c(C)c(-c1cc(C)c(O)c(C)c1)n3CC(CCN1CCN(c3cc(C)ccn3)CC1)O2 (centres unmarked) [Example 43] | 66
Cc1ccnc(N2CCN(CCC3Cn4c(-c5cc(C)c(O)c(C)c5)c(C)c5cc(O)cc(c54)O3)CC2)c1 (centres unmarked) [Example 44] | 100
Cc1cc(-c2c(C)c3cccc4c3n2CC(CCCCN2CCN(c3ccccn3)CC2)O4)cc(C)c1O (centres unmarked) [Example 65] | 64
Cc1ccnc(N2CCN(C(=O)CCC3Cn4c(-c5cc(C)c(O)c(C)c5)c(C)c5c(O)ccc(c54)O3)CC2)c1 (centres unmarked) [Example 67] | 100
Cc1ccnc(N2CCN(C(=O)CCC3Cn4c(-c5ccc(O)cc5)c(C)c5c(O)ccc(c54)O3)CC2)c1 (centres unmarked) [Example 69] | 100
Cc1cc(-c2c(C)c3c(O)ccc4c3n2CC(CCC(=O)N2CCN(c3ccccn3)CC2)O4)cc(C)c1O (centres unmarked) [Example 71] | 100
COc1cc(-c2c(C)c3c(O)ccc4c3n2CC(CCC(=O)N2CCN(c3ccccn3)CC2)O4)cc(C)c1O (centres unmarked) [Example 72] | 100
Cc1ccnc(N2CCN(CCCC3Cn4c(-c5cc(C)c(O)c(C)c5)c(C)c5c(O)ccc(c54)O3)CC2)c1 (centres unmarked) [Example 73] | 100
Cc1cccnc1N1CCN(CCCC2Cn3c(-c4cc(C)c(O)c(C)c4)c(C)c4c(O)ccc(c43)O2)CC1 (centres unmarked) [Example 74] | 100
Cc1cc(-c2c(C)c3c(OCc4ccccc4)ccc4c3n2CC(CCC(=O)N2CCN(c3ccccn3)CC2)O4)cc(C)c1O (centres unmarked) [Example 75] | 51
